According to PubChem BioAssay AID1205 (EPA DSSTox, 2008):
The source made the active and inactive calls.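 Rule for the calls: active = tumour findings in long-term animal cancer tests in more than one sex, species or organ; inactive = no tumour finding and more than one negative test.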

Assay: DSSTox (CPDBAS) Carcinogenic Potency Database Summary MultiCellCall Results
Conditions: animal carcinogenicity bioassays, multi-cell call summary
How it was run: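 Summary call drawn from chronic long-term cancer bioassays in rats, mice, hamsters, dogs and nonhuman primates, using the most positive result per sex-species. Score: multispecies=50, multisex=30, multisite=20, summed for combinations.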

| SMILES | outcome |
| --- | --- |
| [Cl-].[Cl-].[Sn+2] | inactive; multisex inactive; multispecies inactive |
| Nc1ccc([N+](=O)[O-])cc1 | inactive; multisex inactive; multispecies inactive |
| NCCCC(N)(C(=O)O)C(F)F (stereo not drawn) | inactive; multisex inactive |
| ClCC(Cl)(Cl)Cl | active; multisex active |
| Cc1cc2c(nc1N)[nH]c1ccccc12 | active; multisite active; multisex active; multispecies active |
| CC(=O)O[C@]1(C(C)=O)CC[C@H]2[C@@H]3C=C(Cl)C4=CC(=O)[C@@H]5C[C@@H]5[C@]4(C)[C@H]3CC[C@@]21C | active; multisite active; multisex active |
| COc1cc(/C=C/C(=O)CC(=O)/C=C/c2ccc(O)c(OC)c2)ccc1O | inactive; multisex inactive; multispecies inactive |
| NCCCCCCCCCCC(=O)O | active; multisite active |
| CCCN(CCC)c1c([N+](=O)[O-])cc(C(F)(F)F)cc1[N+](=O)[O-] | active; multisite active |
| NNc1ccc(C(=O)O)cc1 | active; multisex active |
| CCCOC(=O)c1cc(O)c(O)c(O)c1 | inactive; multisex inactive; multispecies inactive |
| O=S(=O)(c1ccc(Cl)cc1)c1cc(Cl)c(Cl)cc1Cl | inactive; multisex inactive |
| O=C1c2ccccc2C(=O)c2ccccc21 | inactive; multisex inactive |
| Nc1c(Cl)c(Cl)nc(C(=O)O)c1Cl | inactive; multisex inactive; multispecies inactive |
| CC1=C(C(=O)OC(C)C)C(c2cccc([N+](=O)[O-])c2)C(C(=O)OC2CN(C(c3ccccc3)c3ccccc3)C2)=C(N)N1 (stereo not drawn) | inactive; multisex inactive; multispecies inactive |
| CCC1(c2ccccc2)C(=O)NCNC1=O | active; multisite active; multisex active |
| CC(=O)C(N=Nc1ccc(-c2ccc(N=NC(C(C)=O)C(=O)Nc3ccccc3)c(Cl)c2)cc1Cl)C(=O)Nc1ccccc1 (stereo not drawn) | inactive; multisex inactive; multispecies inactive |
| C=C(F)F | inactive; multisex inactive |
| CCN(Cc1cccc(S(=O)(=O)O)c1)c1ccc(C(=C2C=CC(=[N+](CC)Cc3cccc(S(=O)(=O)O)c3)C=C2)c2ccccc2S(=O)(=O)[O-])cc1 | inactive; multisex inactive; multispecies inactive |
| NC1CCCCC1 | inactive; multisex inactive; multispecies inactive |
| Nc1ccc2ccccc2c1S(=O)(=O)O | inactive; multisex inactive |
| C[C@H]([C@H](O)CCC(C)(C)O)[C@H]1CC[C@@]2(O)C3=CC(=O)[C@@H]4C[C@@H](O)[C@@H](O)C[C@]4(C)[C@H]3CC[C@]12C | active; multisite active; multisex active |
| c1ccc2ccccc2c1 | active; multisite active; multisex active; multispecies active |
| O=NN1CCCCC1c1cccnc1 (stereo not drawn) | active; multisex active |
| c1ccccc1 | active; multisite active; multisex active; multispecies active |

| SMILES | outcome |
| --- | --- |
| O=S1(=O)CC=CC1 | inactive; multisex inactive; multispecies inactive |
| C=CCN(CC(C)O)N=O (stereo not drawn) | active; multisite active |
| O=C1O[C@H]([C@H](O)CO)C(O)=C1O | inactive; multisex inactive; multispecies inactive |
| O[C@@H]([C@H](O)[C@@H](O)CBr)[C@@H](O)CBr | active; multisite active; multisex active; multispecies active |
| CC(=O)Nc1nc(-c2ccc([N+](=O)[O-])o2)cs1 | active; multisite active; multisex active; multispecies active |
| O=S(=O)(O)c1ccc(N=Nc2c(O)ccc3cc(S(=O)(=O)O)ccc23)cc1 | inactive; multisex inactive; multispecies inactive |
| OCC(CO)N[C@H]1C[C@](O)(CO)[C@@H](O)[C@H](O)[C@H]1O | inactive; multisex inactive; multispecies inactive |
| CC1(C)[C@@H](OC2O[C@H](C(=O)O)[C@@H](O)[C@H](O)[C@H]2O[C@H]2O[C@H](C(=O)O)[C@@H](O)[C@H](O)[C@H]2O)CC[C@]2(C)[C@H]3C(=O)C=C4[C@@H]5C[C@@](C)(C(=O)O)CC[C@]5(C)CC[C@@]4(C)[C@]3(C)CC[C@@H]12 (stereo partly drawn) | inactive; multisex inactive |
| C/C=C/C=C/C(=O)O | inactive; multisex inactive; multispecies inactive |
| CC(=O)NN | active; multisex active |
| O=C/C(Cl)=C(/Cl)C(=O)O | inactive; multisex inactive |
| NNC(N)=O | active; multisite active; multisex active |
| O=S1(=O)CCCO1 | active; multisite active; multisex active |
| c1ccc2c(c1)cc1ccc3cccc4ccc2c1c34 | active; multisite active; multisex active; multispecies active |
| O=C1CN(/N=C/c2ccc([N+](=O)[O-])o2)C(=O)N1 | active; multisite active; multisex active; multispecies active |
| NN | active; multisite active; multisex active; multispecies active |
| Nc1ccc(N(CCO)CCO)cc1 | inactive; multisex inactive |
| CN(N=O)C(=O)NCCC[C@H](N)C(=O)O | active; multisite active; multisex active |
| CCc1ccccc1 | active; multisite active; multisex active; multispecies active |
| CC(C)CON=O | active; multisex active; multispecies active |
| FC(F)=C(F)F | active; multisite active; multisex active; multispecies active |
| Cn1c(N)nc2ncc(-c3ccccc3)cc21 | active; multisite active; multisex active; multispecies active |
| CC(Oc1cc(Cl)c(Cl)cc1Cl)C(=O)O (stereo not drawn) | inactive; multisex inactive |
| O=C(O)CN(CCN(CC(=O)O)CC(=O)O)CC(=O)O | inactive; multisex inactive; multispecies inactive |
| C1C2OC2C2C1C1CC2C2OC12 (stereo not drawn) | inactive; multisex inactive; multispecies inactive |

| SMILES | outcome |
| --- | --- |
| CC(=O)C1C(=O)C=C(C)OC1=O (stereo not drawn) | inactive; multisex inactive |
| O=[N+]([O-])c1cccc2cccnc12 | active; multisex active |
| NNC=O | active; multisex active |
| CN1C(=O)CN=C(c2ccccc2)c2cc(Cl)ccc21 | inactive; multisex inactive; multispecies inactive |
| Cl | inactive; multisex inactive |
| CC(C)Oc1ccc(Nc2ccccc2)cc1 | inactive; multisex inactive |
| Nc1cc([N+](=O)[O-])ccc1C(=O)O | inactive; multisex inactive; multispecies inactive |
| ClC1=C(Cl)C2(Cl)C3C(Cl)OC(Cl)C3C1(Cl)C2(Cl)Cl (stereo not drawn) | inactive; multisex inactive |
| O=[N+]([O-])c1ccc(Oc2ccc(Cl)cc2Cl)cc1 | active; multisite active; multisex active; multispecies active |
| S=C(NC1CCCCC1)NC1CCCCC1 | inactive; multisex inactive; multispecies inactive |
| C=CC | inactive; multisex inactive; multispecies inactive |
| CN(C)CCN(Cc1ccco1)c1ccccn1 | inactive; multisex inactive |
| Cc1cc(Cl)ccc1OCC(=O)O | inactive; multisex inactive; multispecies inactive |
| CN1C(=O)C[C@@H](C(=O)N[C@@H](Cc2cnc[nH]2)C(=O)N2CCC[C@H]2C(N)=O)NC1=O | inactive; multisex inactive; multispecies inactive |
| C=C(C)C(=O)Nc1ccc(Cl)c(Cl)c1 | inactive; multisex inactive |
| CC(=O)Oc1ccccc1C(=O)O | inactive; multisex inactive; multispecies inactive |
| O=NN1CCN(N=O)CC1 | active; multisex active |
| CC(C)(CCCOc1ccc(OCCCC(C)(C)C(=O)O)c(-c2ccccc2)c1)C(=O)O | active; multisex active |
| O=C1c2ccccc2CN2C(=O)c3ccccc3CN12 | active; multisite active; multisex active |
| CN(C)C(=S)SC(=S)N(C)C | inactive; multisex inactive |
| O=NN1CCC(=O)NC1=O | active; multisex active |
| NC(=O)c1ccncc1 | inactive; multisex inactive |
| CCN=[N+](C)[O-] | active; multisite active |
| CC1CO1 (stereo not drawn) | active; multisite active; multisex active; multispecies active |
| O=P(O)(O)O | inactive; multisex inactive |

| SMILES | outcome |
| --- | --- |
| CN(CCCO)N=O | active; multisite active; multisex active |
| Oc1ccccc1 | inactive; multisex inactive; multispecies inactive |
| S=C(S)NCCNC(=S)S | inactive; multisex inactive |
| CC(Cc1ccccc1)NN (stereo not drawn) | inactive; multisex inactive |
| S=C(SN1CCOCC1)N1CCOCC1 | active; multisite active; multisex active |
| O=C([O-])C(=O)O.O=C([O-])C(=O)O.[K+].[K+].[O]=[Ti] | inactive; multisex inactive |
| CC1(C)C(=O)Nc2ccc(C3=NNC(=O)CC3)cc21 | active; multisex active |
| c1cc(OCC2CO2)cc(OCC2CO2)c1 (stereo not drawn) | active; multisex active; multispecies active |
| Cn1nc(CO)nc1NCCCOc1cccc(CN2CCCCC2)c1 | active; multisex active |
| CNNCc1ccc(C(=O)NC(C)C)cc1 | active; multisite active; multisex active; multispecies active |
| O=C1CCCO1 | inactive; multisex inactive; multispecies inactive |
| [C-]1=CC=CC1.[C-]1=CC=CC1.[Cl-].[Cl-].[Ti+4] | inactive; multisex inactive |
| CC/C=C(/CC)[N+](=O)[O-] | active; multispecies active |
| CC(=O)[O][Hg][c]1ccccc1 | inactive; multisex inactive |
| CNc1ncnc2nc[nH]c12 | inactive; multisex inactive |
| COC(=O)C1=CCCN(C)C1 | active; multisite active; multisex active |
| COc1ccc(C(c2ccc(OC)cc2)C(Cl)(Cl)Cl)cc1 | inactive; multisex inactive; multispecies inactive |
| CC(Oc1cc(Cl)ccc1Cl)C(=O)O (stereo not drawn) | inactive; multisex inactive |
| CC(Oc1c(Cl)cccc1Cl)C1=NCCN1 (stereo not drawn) | inactive; multisex inactive |
| COc1cc(NC(=O)C(N=Nc2ccc(-c3ccc(N=NC(C(C)=O)C(=O)Nc4cc(OC)c(Cl)cc4OC)c(Cl)c3)cc2Cl)C(C)=O)c(OC)cc1Cl (stereo not drawn) | inactive; multispecies inactive |
| CNC(=O)O/N=C/C(C)(C)SC | inactive; multisex inactive; multispecies inactive |
| O=[N+]([O-])c1ccc(-c2cscn2)o1 | active; multisite active |
| C=CCc1ccc(OC)c(OC)c1 | active; multisite active; multisex active; multispecies active |
